Results reported in ChEMBL document CHEMBL1201862, “PubChem BioAssay data set” (2004).
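Test compounds were applied to cells in 96-well plates for 48 hours at 5 doses. GI50 = concentration required for 50% inhibition of growth.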 Active and inactive are the calls of the source. No stated cut-off is given here; in the data, active = GI50 up to about 1.1 µM and inactive = higher.

Assays:
Assay in all cases: NCI anticancer screen, dose series, 48 h
[1] = system: SNB-19
[2] = system: NCI-H522
[3] = system: UO-31
[4] = system: HOP-92
[5] = system: HOP-62
[6] = system: MDA-N
[7] = system: NCI-H226
[8] = system: HCC 2998
[9] = system: LOX IMVI
[10] = system: IGROV-1
[11] = system: SF-268
[12] = system: HL-60
[13] = system: M14
[14] = system: SK-MEL-28
[15] = system: CCRF-CEM
[16] = system: NCI-H23
[17] = system: NCI/ADR-RES
[18] = system: A498
[19] = system: SF-295
[20] = system: RPMI-8226

| SMILES | GI50 [1] | GI50 [2] | GI50 [3] | GI50 [4] | GI50 [5] | GI50 [6] | GI50 [7] | GI50 [8] | GI50 [9] | GI50 [10] | GI50 [11] | GI50 [12] | GI50 [13] | GI50 [14] | GI50 [15] | GI50 [16] | GI50 [17] | GI50 [18] | GI50 [19] | GI50 [20] |
| --- | --- | --- | --- | --- | --- | --- | --- | --- | --- | --- | --- | --- | --- | --- | --- | --- | --- | --- | --- | --- |
| O=C1Nc2ccccc2/C1=N/NC(=S)Nc1cccc(Cl)c1 | 16.6 µM (inactive) | 21.9 µM (inactive) | 19.5 µM (inactive) | 18.7 µM (inactive) | 10.9 µM (inactive) | 27.9 µM (inactive) | 18 µM (inactive) | 66.4 µM (inactive) | 5.37 µM (inactive) | 17.2 µM (inactive) | 4.53 µM (inactive) | 8.87 µM (inactive) | 10.4 µM (inactive) | 35.2 µM (inactive) | 2.75 µM (inactive) | 6.97 µM (inactive) | 2.37 µM (inactive) | 4.03 µM (inactive) | 4.81 µM (inactive) | – |
| Cn1nc(/C=C\C(=O)N2CC(CCl)c3c2cc(N)c2ccccc32)cc1/C=C/C(=O)N1CC(CCl)c2c1cc(N)c1ccccc21 (stereo unspecified) | < 0.01 µM (active) | < 0.01 µM (active) | < 0.01 µM (active) | – | < 0.01 µM (active) | < 0.01 µM (active) | < 0.01 µM (active) | < 0.01 µM (active) | < 0.01 µM (active) | – | < 0.01 µM (active) | – | < 0.01 µM (active) | < 0.01 µM (active) | < 0.01 µM (active) | < 0.01 µM (active) | 0.0124 µM (active) | < 0.01 µM (active) | < 0.01 µM (active) | – |
| COC(=O)C1CCC(=O)N1CN(C(C)=O)c1ccccc1Cl (stereo unspecified) | > 100 µM (inactive) | > 100 µM (inactive) | > 100 µM (inactive) | > 100 µM (inactive) | > 100 µM (inactive) | > 100 µM (inactive) | > 100 µM (inactive) | > 100 µM (inactive) | > 100 µM (inactive) | > 100 µM (inactive) | > 100 µM (inactive) | – | > 100 µM (inactive) | > 100 µM (inactive) | – | > 100 µM (inactive) | > 100 µM (inactive) | > 100 µM (inactive) | > 100 µM (inactive) | > 100 µM (inactive) |
| [N-]=[N+]=Nc1c([N+](=O)[O-])c(=O)n(-c2ccccc2)c2ccccc12 | 32.3 µM (inactive) | 25.8 µM (inactive) | 14.8 µM (inactive) | 26.4 µM (inactive) | 43.7 µM (inactive) | 27.2 µM (inactive) | 25.5 µM (inactive) | 61.5 µM (inactive) | 17.5 µM (inactive) | 21.7 µM (inactive) | 22.5 µM (inactive) | – | 27.2 µM (inactive) | 26.5 µM (inactive) | 29.4 µM (inactive) | 22 µM (inactive) | 20.7 µM (inactive) | 73.5 µM (inactive) | 27.9 µM (inactive) | 16 µM (inactive) |
| CC(C)C(=O)NCC[C@@H](CNC(=O)OC(C)(C)C)NC(=O)OC(C)(C)C | > 100 µM (inactive) | > 100 µM (inactive) | > 100 µM (inactive) | > 100 µM (inactive) | > 100 µM (inactive) | > 100 µM (inactive) | > 100 µM (inactive) | > 100 µM (inactive) | – | > 100 µM (inactive) | > 100 µM (inactive) | – | > 100 µM (inactive) | > 100 µM (inactive) | > 100 µM (inactive) | > 100 µM (inactive) | > 100 µM (inactive) | > 100 µM (inactive) | > 100 µM (inactive) | – |
| C=CCNC(=S)NC=C(C(N)=O)C(N)=O | > 100 µM (inactive) | > 100 µM (inactive) | 87.9 µM (inactive) | – | > 100 µM (inactive) | > 100 µM (inactive) | > 100 µM (inactive) | > 100 µM (inactive) | > 100 µM (inactive) | > 100 µM (inactive) | > 100 µM (inactive) | > 100 µM (inactive) | > 100 µM (inactive) | > 100 µM (inactive) | > 100 µM (inactive) | > 100 µM (inactive) | > 100 µM (inactive) | < 0.01 µM (active) | > 100 µM (inactive) | > 100 µM (inactive) |
| COc1ccc(C2=Nn3c(nc4sc(-c5ccccc5)cc4c3=O)SC2)cc1 | – | > 100 µM (inactive) | > 100 µM (inactive) | > 100 µM (inactive) | 54.8 µM (inactive) | 81.8 µM (inactive) | > 100 µM (inactive) | > 100 µM (inactive) | > 100 µM (inactive) | > 100 µM (inactive) | > 100 µM (inactive) | > 100 µM (inactive) | – | > 100 µM (inactive) | > 100 µM (inactive) | > 100 µM (inactive) | > 100 µM (inactive) | > 100 µM (inactive) | > 100 µM (inactive) | > 100 µM (inactive) |
| O=C(COc1ccc(OCC(=O)N2C(=O)CC(=O)N(c3ccccc3)C2=S)cc1)N1C(=O)CC(=O)N(c2ccccc2)C1=S | 69.7 µM (inactive) | 38.1 µM (inactive) | 61.4 µM (inactive) | 52 µM (inactive) | – | 68.7 µM (inactive) | 65.8 µM (inactive) | 97.3 µM (inactive) | – | 38.7 µM (inactive) | 43.2 µM (inactive) | – | 89.5 µM (inactive) | 87.3 µM (inactive) | – | 64.4 µM (inactive) | > 100 µM (inactive) | 80.2 µM (inactive) | 56.6 µM (inactive) | 31.1 µM (inactive) |
| CN1C(=O)c2ccccc2NC(=O)C12O[C@@H]2c1ccccc1 (stereo partly specified) | > 10 µM (inactive) | > 100 µM (inactive) | > 100 µM (inactive) | > 100 µM (inactive) | > 100 µM (inactive) | > 100 µM (inactive) | – | > 100 µM (inactive) | > 100 µM (inactive) | > 100 µM (inactive) | > 100 µM (inactive) | > 100 µM (inactive) | > 100 µM (inactive) | > 100 µM (inactive) | > 100 µM (inactive) | > 100 µM (inactive) | > 100 µM (inactive) | > 100 µM (inactive) | > 100 µM (inactive) | > 100 µM (inactive) |
| N#Cc1ncc(C(Cl)Cl)nc1Cl | 6.38 µM (inactive) | 0.502 µM (active) | 1.78 µM (inactive) | 0.00769 µM (active) | 3.07 µM (inactive) | 1.5 µM (inactive) | 9.27 µM (inactive) | 1.69 µM (inactive) | 1.44 µM (inactive) | 2.09 µM (inactive) | 2.43 µM (inactive) | 0.748 µM (active) | 1.13 µM (inactive) | 1.89 µM (inactive) | 0.491 µM (active) | 2.12 µM (inactive) | 2.14 µM (inactive) | > 10 µM (inactive) | 7.24 µM (inactive) | – |
| O=c1/c(=C/c2ccc(-c3ccc(Cl)cc3Cl)o2)sc2n1[C@@H](c1ccc(Cl)cc1)C=C(c1cc(F)c(Cl)cc1Cl)N=2 | 35.6 µM (inactive) | 84.3 µM (inactive) | 41.5 µM (inactive) | 26.1 µM (inactive) | 10.6 µM (inactive) | 53.8 µM (inactive) | 22 µM (inactive) | 12.8 µM (inactive) | 57.9 µM (inactive) | 33 µM (inactive) | 36.1 µM (inactive) | < 0.01 µM (active) | > 100 µM (inactive) | > 100 µM (inactive) | – | 36.6 µM (inactive) | 50.8 µM (inactive) | 2.05 µM (inactive) | 53.2 µM (inactive) | 31.1 µM (inactive) |
| c1ccc2c(-c3cnc(-c4c[nH]c5ccccc45)cn3)c[nH]c2c1 | 58.7 µM (inactive) | 28.6 µM (inactive) | 39.5 µM (inactive) | 28.6 µM (inactive) | 37.8 µM (inactive) | 19.1 µM (inactive) | – | 42.6 µM (inactive) | 29.3 µM (inactive) | 30.8 µM (inactive) | 50.6 µM (inactive) | – | 29.1 µM (inactive) | 35.6 µM (inactive) | – | 61.8 µM (inactive) | 74.5 µM (inactive) | > 100 µM (inactive) | 20.2 µM (inactive) | 45.3 µM (inactive) |
| Cc1nc2c(=O)[nH]c3ccc(Cl)cc3c2o1 | > 100 µM (inactive) | > 100 µM (inactive) | > 100 µM (inactive) | > 100 µM (inactive) | > 100 µM (inactive) | > 100 µM (inactive) | > 100 µM (inactive) | > 100 µM (inactive) | > 100 µM (inactive) | 89.7 µM (inactive) | > 100 µM (inactive) | – | > 100 µM (inactive) | – | > 100 µM (inactive) | > 100 µM (inactive) | > 100 µM (inactive) | > 100 µM (inactive) | > 100 µM (inactive) | > 100 µM (inactive) |
| Cc1[nH]n(-c2nc3c(c(=O)[nH]2)CCCC3)c(=O)c1CCO | > 100 µM (inactive) | > 100 µM (inactive) | > 100 µM (inactive) | – | > 100 µM (inactive) | > 100 µM (inactive) | > 100 µM (inactive) | > 100 µM (inactive) | > 100 µM (inactive) | > 100 µM (inactive) | > 100 µM (inactive) | > 100 µM (inactive) | > 100 µM (inactive) | > 100 µM (inactive) | > 100 µM (inactive) | > 100 µM (inactive) | > 100 µM (inactive) | > 100 µM (inactive) | > 100 µM (inactive) | – |
| CCCCCCC(O)C(O)CCC(O)C1CCC(CCCCC(O)CC2=CC(C)OC2=O)O1 (stereo unspecified) [ACETOGENINS] | 2.74 µM (inactive) | 7.71 µM (inactive) | 2.06 µM (inactive) | 4.88 µM (inactive) | 3.81 µM (inactive) | 2.32 µM (inactive) | 1.74 µM (inactive) | 15.9 µM (inactive) | 1.39 µM (inactive) | 2.95 µM (inactive) | 2.06 µM (inactive) | – | 3.15 µM (inactive) | 4.66 µM (inactive) | 3.58 µM (inactive) | 0.161 µM (active) | 1.14 µM (inactive) | 17.5 µM (inactive) | 1.83 µM (inactive) | 7.41 µM (inactive) |
